Test results published in US9339564B2, “Ether and alkyl phospholipid compounds for treating cancer and imaging and detection of cancer” (Cellectar, Inc., priority 2009, dated 2016).

What was measured:
[1] = test system: benign or premalignant lesions or inflammatory lesions; assay: Localization of CLR1404 in non-malignant lesions; assay type: in vivo; conditions: stated in contrast to 18F-FDG
Excerpt: (§1) We have developed several series of tumor-selective radiolabeled ether and alkyl phospholipid compounds for imaging, characterization, and treatment of malignant tumors. […] Cellular signaling and regulation of phospholipids, including phospholipase-D and its isoforms, as well as Phosphatase and Tensin Homologue Deleted from Chromosome-10 (PTEN) and phosphatidylinositol phosphate (PIPn) pathways, are known to be directly involved in upstream regulation of many key oncogenic pathways. We now have strong evidence that the uptake and retention of our PLE analogs is due at least in part to these upstream regulation and signaling cancer cell pathways.

[2] = test system: solid xenograft and spontaneous human tumor and rodent tumor models; assay: Tumor uptake and retention of CLR1404 in tumor models; assay type: in vivo; conditions: over fifty solid xenograft and spontaneous human tumor and rodent tumor models
Excerpt: as §1

Question: What does the source list for C[N+](C)(C)CCOP(=O)([O-])OCCCCCCCCCCCCCCCCCCc1ccc(I)cc1 [CLR1404, 18-(p-iodophenyl)octadecyl phosphocholine]?
Answer: localization in benign, premalignant or inflammatory lesions [1]: does not localize in benign or premalignant lesions or in inflammatory lesions; uptake and retention in tumors [2]: striking uptake and prolonged selective retention properties
